Legend:
[1] = target: Full length EN PA (influenza PA endonuclease) (Influenza A virus, UniProt P15659); experiment: EN PA FRET inhibition assay; format: biochemical; conditions: FRET probe, mean of a minimum of two independent experiments, read-out: Potency (IC50 class, Table 3)
[2] = test system: Influenza strain A549_A/WSN/33 (H1N1); experiment: Influenza antiviral assay (neuraminidase fluorescence readout); format: cell-based, Influenza virus; conditions: Influenza A virus, read-out: % Inhibition (EC50 class, Table 2)

Compound	IC50 [1] [µM]	EC50 [2] [µM]
CCN1C[C@@H](C(c2cccc(C)c2)c2cccc(C)c2)n2ncc(=O)c(O)c2C1=O [Compound 36-B]	≥ 1	< 20
CCN1CC(C(c2cccc(C)c2)c2cccc(C)c2)n2ncc(=O)c(O)c2C1=O (stereo not shown) [Compound 36]	< 0.25	< 20
CCCN1C[C@H](C(c2ccccc2)c2ccccc2)n2ncc(=O)c(O)c2C1=O [Compound 37-A]	< 0.25	< 20
CN1CC(C(c2ccc(F)cc2)c2ccc(F)cc2)n2ncc(=O)c(O)c2C1=O (stereo not shown) [Compound 38]	< 0.25	< 20
CCN1C[C@@H](C(c2cccc(Cl)c2)c2cccc(Cl)c2)n2ncc(=O)c(O)c2C1=O [Compound 39-B]	0.25 to 1	< 20
CCN1CC(C(c2cccc(Cl)c2)c2cccc(Cl)c2)n2ncc(=O)c(O)c2C1=O (stereo not shown) [Compound 39]	< 0.25	< 20
CN1CC(C(c2ccccc2)c2ccc(F)cc2)n2ncc(=O)c(O)c2C1=O (stereo not shown) [Compound 40]	< 0.25	< 20
CC(C)N1CC(C(c2cccc(F)c2)c2cccc(F)c2)n2ncc(=O)c(O)c2C1=O (stereo not shown) [Compound 41]	< 0.25	< 20
CN1C[C@H](C2c3ccccc3CCc3cccnc32)n2ncc(=O)c(O)c2C1=O (stereo partly shown) [Compound 42-A]	< 0.25	< 20
CN1C[C@@H](C2c3ccccc3CCc3cccnc32)n2ncc(=O)c(O)c2C1=O (stereo partly shown) [Compound 42-B]	0.25 to 1	20 to 100
CN1CC(C2c3ccccc3CCc3cccnc32)n2ncc(=O)c(O)c2C1=O (stereo not shown) [Compound 42]	< 0.25	< 20
CN1C[C@H](C2c3cc(F)ccc3CCc3ccc(F)cc32)n2ncc(=O)c(O)c2C1=O [Compound 45-A]	< 0.25	< 20
CN1C[C@@H](C2c3cc(F)ccc3CCc3ccc(F)cc32)n2ncc(=O)c(O)c2C1=O [Compound 45-B]	< 0.25	20 to 100
CN1CC(C2c3cc(F)ccc3CCc3ccc(F)cc32)n2ncc(=O)c(O)c2C1=O (stereo not shown) [Compound 45]	< 0.25	< 20
CN1C[C@@H](C2c3ccc(Cl)cc3CCc3cc(Cl)ccc32)n2ncc(=O)c(O)c2C1=O [Compound 46-B]	< 0.25	20 to 100
CC(C)N1CC(C(c2ccccc2)c2cccc(F)c2)n2ncc(=O)c(O)c2C1=O (stereo not shown) [Compound 47]	< 0.25	< 20
Cc1cccc(C(c2cccc(C)c2)C2CN(C(C)C)C(=O)c3c(O)c(=O)cnn32)c1 (stereo not shown) [Compound 48]	< 0.25	< 20
CCN1CC(C(c2ccccc2)c2cccc(C)c2)n2ncc(=O)c(O)c2C1=O (stereo not shown) [Compound 49]	< 0.25	< 20
Cc1cccc(C(c2ccccc2)C2CN(C(C)C)C(=O)c3c(O)c(=O)cnn32)c1 (stereo not shown) [Compound 50]	< 0.25	< 20
CC(C)N1C[C@H](C2c3cccc(F)c3CCc3c(F)cccc32)n2ncc(=O)c(O)c2C1=O [Compound 51-A]	< 0.25	< 20
CC(C)N1CC(C2c3cccc(F)c3CCc3c(F)cccc32)n2ncc(=O)c(O)c2C1=O (stereo not shown) [Compound 51]	< 0.25	< 20
CN1C[C@@H](C2c3cc(Cl)ccc3CCc3ccc(Cl)cc32)n2ncc(=O)c(O)c2C1=O [Compound 52-A]	< 0.25	< 20
CN1C[C@H](C2c3cc(Cl)ccc3CCc3ccc(Cl)cc32)n2ncc(=O)c(O)c2C1=O [Compound 52-B]	< 0.25	< 20
CN1CC(C2c3cc(Cl)ccc3CCc3ccc(Cl)cc32)n2ncc(=O)c(O)c2C1=O (stereo not shown) [Compound 52]	< 0.25	< 20
COCCN1C[C@H](C(c2ccccc2)c2ccccc2)n2ncc(=O)c(O)c2C1=O [Compound 53-A]	< 0.25	< 20
CC(C)Oc1cccc(C(c2ccccc2)[C@H]2CN(C)C(=O)c3c(O)c(=O)cnn32)c1 (stereo partly shown) [Compound 54]	< 0.25	20 to 100

— patent US10980805B2, “Aza-pyridone compounds and uses thereof” (Janssen BioPharma, Inc., priority 2013, dated 2021)
